Results taken from patent EP4696306A1, “ADENOSINE TRIPHOSPHATE SECRETION INHIBITOR, HEPATIC STELLATE CELL ACTIVATION INHIBITOR, HEPATIC STELLATE CELL DEACTIVATOR, HEPATIC FIBROSIS THERAPEUTIC AGENT, NON-ALCOHOLIC STEATOHEPATITIS THERAPEUTIC AGENT, PSORIASIS THERAPEUTIC AGENT, AND USE OF COMPOUND FOR PRODUCING ADENOSINE TRIPHOSPHATE …” (KURUME UNIVERSITY, priority 2023, dated 2024).

Test system: Thioacetamide-induced hepatic fibrosis
Test: Thioacetamide-induced hepatic fibrosis in mice
Type: in vivo
Procedure: Wild-type mice, […] (manufactured by Charles River Japan), were housed on a 12-hour light/dark cycle and fed a standard solid diet (5.4% fat, CRF-1, manufactured by Oriental Yeast Co., Ltd.) ad libitum. Thioacetamide (TAA, manufactured by FUJIFILM Wako Pure Chemical Corporation) was dissolved in physiological saline at 0.9% w/v. Eight-week-old mice were randomly assigned to three groups and continuously treated for 9 weeks according to the following scheme. At Week 9, all mice were euthanized 1 hour after administration of physiological saline or IMG.
Normal control group (N = 6): Physiological saline was intraperitoneally administered to mice three times per week. Eight hours after each administration, a vehicle was orally administered to the mice.
TAA group (N = 6): TAA(50 mg/kg, intraperitoneal) was administered to mice. Eight hours thereafter, physiological saline was orally administered to the mice. This treatment was performed three times per week for a total of 9 weeks.
TAA + IMG group (N = 6): During the first week, physiological saline was orally administered to mice. Thereafter, imeglimin (IMG) at 200 mg/kg was orally administered three times per week for 8 weeks. The administration of IMG was performed 8 hours after intraperitoneal administration of TAA (50 mg/kg).
For immunohistochemical analysis, liver samples were fixed in 4% paraformaldehyde, embedded in paraffin, and then sectioned. The sections were stained with HE or PSR. In addition, the paraffin-embedded sections were subjected to immunostaining using an α-SMA monoclonal antibody (1:500, catalog No. A5228, manufactured by Sigma-Aldrich) and an F4/80 monoclonal antibody (1:200, catalog No. MCA497GA, manufactured by AbD Serotec). The cell specimens were observed using a microscope (BZ-X700 series, manufactured by Keyence) or a confocal laser microscope (FV1000, manufactured by Olympus Corporation). The number of F4/80-positive cells was counted in four high-power fields per section. The α-SMA-positive area and the PSR-positive area were quantified using the image analysis software Fiji-ImageJ (1.54f).
A histological score was determined by a blinded investigator using the NAFLD histological scoring system of the Nonalcoholic Steatohepatitis Clinical Research Network. The total NAFLD activity score (NAS) was calculated from the total of the individual scores for steatosis ([…]), lobular inflammation (F4/80), and hepatocyte ballooning. The range of each parameter was 0 to 2 (ballooning) or 3 (the other two scores), where 0 indicates normal and 2 or 3 indicates severe. Staging of fibrosis was based on the NASH fibrosis stages, and a fibrosis stage ranging from 0 to 4 was determined according to Reference H (David E. Kleiner et al., 2005, Design and validation of a histological scoring system for nonalcoholic fatty liver disease, Hepatology, 41, 1313-1321).
All results are expressed as the mean ± standard error of the mean (S.E.M.). Statistical analyses were performed using GraphPad Prism 7.0 (GraphPad Software). Significance upon comparison between two groups was evaluated by an unpaired two-tailed Student's t-test. An unpaired two-tailed Student's t-test was used. Statistical significance among three or more groups was determined by two-way analysis of variance (ANOVA) with Tukey's or Dunnett's post hoc test. Coloc2 was used to perform image analysis, automatic thresholding, and pixel intensity correlation for statistical processing. Statistical significance was assumed when the P value was < 0.05.
In accordance with Example 15, immunostaining of α-SMA in liver sections and observation by fluorescence microscopy were performed for the normal control group, the TAA group, and the TAA + IMG group, and for a TAA + Clo group, which was treated in the same manner as the TAA + IMG group except that clodronate, instead of imeglimin, was administered at 30 mg/kg by blending it in the drinking water from 1 week after the start of TAA administration. […]

[1] = imeglimin 200 mg/kg orally three times per week for 8 weeks

SMILES | α-SMA-positive reaction in liver, increase by TAA (clodronate 30 mg/kg in the drinking water, immunostaining) | α-SMA-positive area fraction (clodronate 30 mg/kg in the drinking water, normal control 0.14 ± 0.01, TAA group 2.79 ± 0.33, four measurements per group) | α-SMA in liver sections (immunostaining and fluorescence microscopy) (imeglimin 200 mg/kg orally) | α-SMA-positive reaction by Western blotting of liver tissue, increase due to TAA (imeglimin 200 mg/kg orally) | fibrosis score, increase by TAA [1] | liver histology (HE staining) [1] | positive reaction of F4/80-positive macrophages, increase by TAA [1] | α-SMA-positive reaction (activation of hepatic stellate cells), increase by TAA [1] | PSR staining-positive area (collagen fibers) (imeglimin 200 mg/kg orally three times per week for 8 weeks, versus TAA group)
O=P(O)(O)C(Cl)(Cl)P(=O)(O)O [clodronate] | markedly suppressed | 0.71 ± 0.10 |  |  |  |  |  |  | 
C[C@H]1N=C(N(C)C)N=C(N)N1 [imeglimin] |  |  | effect similar to that of clodronate | markedly suppressed | suppressed | reduced destruction of the lobular structure, hepatocyte ballooning, and inflammatory cell infiltration | strongly suppressed | strongly suppressed | significantly reduced
